27 molecules from patent publication US20060009493A1, “Indolinone hydrazides as c-Met inhibitors” (Sugen, Inc., priority 2003, published 2006) can be followed below.

In general, IC50 refers to the concentration that inhibits the measured activity by half.

For this assay, the target named is T1, GST fusion protein containing the Met kinase domain (Homo sapiens, UniProt P08581).
T1 construct: Purified GST fusion protein containing the Met kinase domain, Sugen, Inc
T1 sequence (P08581 1078-1345 limits assumed): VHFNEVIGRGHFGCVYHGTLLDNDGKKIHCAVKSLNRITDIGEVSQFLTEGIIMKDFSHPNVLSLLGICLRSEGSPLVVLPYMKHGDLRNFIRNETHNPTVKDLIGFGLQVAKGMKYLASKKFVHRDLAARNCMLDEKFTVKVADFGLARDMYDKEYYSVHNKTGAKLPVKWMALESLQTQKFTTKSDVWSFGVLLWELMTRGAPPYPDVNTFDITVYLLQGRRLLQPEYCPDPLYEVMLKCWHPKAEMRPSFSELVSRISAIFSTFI
In words: MET Transphosphorylation Assay (ELISA, poly(Glu,Tyr) 4:1 substrate). It counts as biochemical. The settings on record: met transphosphorylation of poly(glutamic acid:tyrosine 4:1) substrate; two values in a cell separated by '/'. A digest of the protocol:
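Poly(Glu-Tyr)-coated wells received the GST-Met kinase domain (10 ng/well) with compound in DMSO for 15 minutes. The reaction was started with ATP/MnCl2 in HEPES pH 7.5 buffer with vanadate, run 5 minutes, and stopped with EDTA. Phosphotyrosine was detected by anti-pTyr antibody, HRP secondary and ABTS/H2O2.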
For orientation: In an ELISA, binding on a coated surface is turned into a signal by an enzyme label.
The molecule `O=C(Cc1ccc(O)c(Cl)c1)N/N=C1\C(=O)Nc2c(Cl)ccc(Cl)c21` [II-54, (3-Chloro-4-hydroxy-phenyl)-acetic acid [(3Z)-4,7-dichloro-2-oxo-1,2-dihydro-indol-3-ylidene)-hydrazide] yielded an IC50 below 9 nM. Next, `O=C(Cc1ccc(O)c(F)c1)N/N=C1\C(=O)Nc2c(Cl)ccc(Cl)c21` [II-55, (3-Fluoro-4-hydroxy-phenyl)-acetic acid [(3Z)-4,7-dichloro-2-oxo-1,2-dihydro-indol-3-ylidene]-hydrazide]: below 9 nM; `O=C(Cc1ccc(O)nc1)N/N=C1\C(=O)Nc2c(Cl)ccc(Cl)c21` [II-56, (6-Hydroxy-pyridin-3-yl)-acetic acid [(3Z)-4,7-dichloro-2-oxo-1,2-dihydro-indol-3-ylidene]-hydrazide]: 21 nM; `Cc1ccc(C)c2c1NC(=O)/C2=N\NC(=O)C(C)c1ccc(O)cc1` (stereo not drawn) [II-57, 2-(4-Hydroxy-phenyl)-propionic acid [(3Z)-4,7-dimethyl-2-oxo-1,2-dihydro-indol-3-ylidene]-hydrazide]: 16 nM. As to `Cc1ccc2c(c1)/C(=N/NC(=O)Cc1ccc(O)cc1)C(=O)N2` [II-58, (4-Hydroxy-phenyl)-acetic acid [(3Z)-5-methyl-2-oxo-1,2-dihydro-indol-3-ylidene]-hydrazide], the half-inhibitory concentration (IC50) amounted to 67 nM. As for `Cn1cc(CC(=O)N/N=C2\C(=O)Nc3c(Cl)ccc(Cl)c32)ccc1=O` [II-59, (1-Methyl-6-oxo-1,6-dihydro-pyridin-3-yl)-acetic acid [(3Z)-4,7-dichloro-2-oxo-1,2-dihydro-indol-3-ylidene]-hydrazide], the half-maximal inhibitory concentration (IC50) worked out at 45 nM. Next, `COc1cccc2c1NC(=O)/C2=N\NC(=O)Cc1ccc(O)cc1` [II-60, (4-Hydroxy-phenyl)-acetic acid [(3Z)-7-methoxy-2-oxo-1,2-dihydro-indol-3-ylidene]-hydrazide]: 65 nM. Regarding `O=C(Cc1ccc(O)cc1)N/N=C1\C(=O)Nc2c(Cl)cc(Cl)cc21` [II-61, (4-Hydroxy-phenyl)-acetic acid [(3Z)-5,7-dichloro-2-oxo-1,2-dihydro-indol-3-ylidene)-hydrazide], the IC50 amounted to 88 nM. Next, `O=C(Cc1ccc(O)cc1)N/N=C1\C(=O)Nc2ccc([N+](=O)[O-])cc21` [II-62, (4-Hydroxy-phenyl)-acetic acid [(3Z)-5-nitro-2-oxo-1,2-dihydro-indol-3-ylidene]-hydrazide]: 96 nM.

Molecule `Cc1cc(Cl)cc2c1NC(=O)/C2=N\NC(=O)Cc1ccc(O)cc1` [II-63, (4-Hydroxy-phenyl)-acetic acid [(3Z)-5-chloro-7-methyl-2-oxo-1,2-dihydro-indol-3-ylidene]hydrazide] registered a concentration for half-maximal inhibition (IC50) below 9.1 nM. The value for `O=C(Cc1ccc(O)c(O)c1)N/N=C1\C(=O)Nc2ccccc21` [II-64, (3,4-Dihydroxy-phenyl)-acetic acid [(3E)-2-oxo-1,2-dihydro-indol-3-ylidene]-hydrazide] was above 20000 nM; that for `O=C(Cc1ccncc1)N/N=C1\C(=O)Nc2c(Cl)ccc(Cl)c21` [II-66, Pyridin-4-yl-acetic acid [(3Z)-4,7-dichloro-2-oxo-1,2-dihydro-indol-3-ylidene]-hydrazide] was 13 nM.

Take `O=C(Cc1ccc(F)cc1)N/N=C1\C(=O)Nc2c(Cl)ccc(Cl)c21` [II-67, (4-Fluoro-phenyl)-acetic acid [(3Z)-4,7-dichloro-2-oxo-1,2-dihydro-indol-3-ylidene)-hydrazide]: the IC50 was 20 nM.

`CC(C)C(C(=O)N/N=C1\C(=O)Nc2ccccc21)c1ccc(O)cc1` (stereo not drawn) [II-68, 2-(4-Hydroxy-phenyl)-3-methyl-butyric acid [(3Z)-2-oxo-1,2-dihydro-indol-3-ylidene)-hydrazide] had an IC50 of 1450 nM. Take `CC(C)C(C(=O)N/N=C1\C(=O)Nc2c(Cl)ccc(Cl)c21)c1ccc(O)cc1` (stereo not drawn) [II-69, 2-(4-Hydroxy-phenyl)-3-methyl-butyric acid [(3Z)-4,7-dichloro-2-oxo-1,2-dihydro-indol-3-ylidene)-hydrazide]: the half-maximal inhibitory concentration (IC50) amounted to 170 nM. The value for `COc1ccc(CC(=O)N/N=C2\C(=O)Nc3c(Cl)ccc(Cl)c32)cc1C` [II-70, (4-Methoxy-3-methyl-phenyl)-acetic acid [(3Z)-4,7-dichloro-2-oxo-1,2-dihydro-indol-3-ylidene]-hydrazide] was above 20000 nM; that for `O=C(Cn1ccc(=O)[nH]c1=O)N/N=C1\C(=O)Nc2ccccc21` [II-71, (2,4-Dioxo-3,4-dihydro-2H-pyrimidin-1-yl)-acetic acid [(3Z)-2-oxo-1,2-dihydro-indol-3-ylidene]-hydrazide] was above 20000 nM.

For `O=C(Cn1ccc(=O)[nH]c1=O)N/N=C1\C(=O)Nc2c(Cl)ccc(Cl)c21` [II-72, (2,4-Dioxo-3,4-dihydro-2H-pyrimidin-1-yl)-acetic acid [(3Z)-4,7-dichloro-2-oxo-1,2-dihydro-indol-3-ylidene]-hydrazide], the IC50 was above 20000 nM.

Molecule `Cc1cn(CC(=O)N/N=C2\C(=O)Nc3ccccc32)c(=O)[nH]c1=O` [II-73, (5-Methyl-2,4-dioxo-3,4-dihydro-2H-pyrimidin-1-yl)-acetic acid [(3Z)-2-oxo-1,2-dihydro-indol-3-ylidene]-hydrazide] showed a half-maximal inhibitory concentration (IC50) above 20000 nM.

Molecule `Cc1cn(CC(=O)N/N=C2\C(=O)Nc3c(Cl)ccc(Cl)c32)c(=O)[nH]c1=O` [II-74, (5-Methyl-2,4-dioxo-3,4-dihydro-2H-pyrimidin-1-yl)-acetic acid [(3Z)-4,7-dichloro-2-oxo-1,2-dihydro-indol-3-ylidene]-hydrazide] displayed an IC50 above 20000 nM. Next, `O=C(Cc1ccccc1)N/N=C1\C(=O)Nc2c(Cl)ccc(Cl)c21` [II-75, Phenyl-acetic acid [(3Z)-4,7-dichloro-2-oxo-1,2-dihydro-indol-3-ylidene]-hydrazide]: 90 nM. Next, `O=C(CCc1ccc(O)cc1)N/N=C1\C(=O)Nc2c(Cl)ccc(Cl)c21` [II-76, 3-(4-Hydroxy-phenyl)-propionic acid [(3Z)-4,7-dichloro-2-oxo-1,2-dihydro-indol-3-ylidene]-hydrazide]: 46 nM; `CC(C(=O)N/N=C1\C(=O)Nc2c(Cl)ccc(Cl)c21)c1ccc(O)cc1` (stereo not drawn) [II-77, 2-(4-Hydroxy-phenyl)-propionic acid [(3Z)-4,7-dichloro-2-oxo-1,2-dihydro-indol-3-ylidene]-hydrazide]: 15 nM.

As to `Nc1cccc(CC(=O)N/N=C2\C(=O)Nc3c(Cl)ccc(Cl)c32)c1` [II-78, (3-Amino-phenyl)-acetic acid [(3Z)-4,7-dichloro-2-oxo-1,2-dihydro-indol-3-ylidene]-hydrazide], the half-maximal inhibitory concentration (IC50) stood at 110 nM. For the molecule `CCC(C(=O)N/N=C1\C(=O)Nc2c(Cl)ccc(Cl)c21)c1ccc(OC)cc1` (stereo not drawn) [II-79, 2-(4-Methoxy-phenyl)-butyric acid [(3Z)-4,7-dichloro-2-oxo-1,2-dihydro-indol-3-ylidene)-hydrazide], the IC50 is 150 nM. Regarding `O=C(Cc1cc(=O)[nH]c(=O)[nH]1)N/N=C1\C(=O)Nc2ccccc21` [II-80, (2,6-Dioxo-1,2,3,6-tetrahydro-pyrimidin-4-yl)-acetic acid [(3Z)-2-oxo-1,2-dihydro-indol-3-ylidene)-hydrazide], the IC50 is above 20000 nM. Next, `Cc1ccc(C)c2c1NC(=O)/C2=N\NC(=O)CCc1ccc(O)cc1` [II-81, 3-(4-Hydroxy-phenyl)-propionic acid [(3Z)-4,7-dimethyl-2-oxo-1,2-dihydro-indol-3-ylidene]-hydrazide]: 59 nM.
